Source: patent US8288435B2, “2-aza-bicyclo[3.1.0]hexane derivatives as orexin receptor antagonists” (Actelion Pharmaceuticals Ltd., priority 2006, dated 2012)

What was measured:
human orexin-2 receptor = target: T1, human orexin-2 receptor (Homo sapiens, UniProt O43614); test: Intracellular calcium measurements (FLIPR), orexin receptor antagonistic activity, OX2; format: cell-based; settings: CHO cells expressing the human orexin-2 receptor, 10 nM orexin-A as agonist
T1 construct: expressed in transfected cells; host or cells: CHO (Chinese hamster ovary) cells, G418 selection
T1 sequence (O43614 1-444): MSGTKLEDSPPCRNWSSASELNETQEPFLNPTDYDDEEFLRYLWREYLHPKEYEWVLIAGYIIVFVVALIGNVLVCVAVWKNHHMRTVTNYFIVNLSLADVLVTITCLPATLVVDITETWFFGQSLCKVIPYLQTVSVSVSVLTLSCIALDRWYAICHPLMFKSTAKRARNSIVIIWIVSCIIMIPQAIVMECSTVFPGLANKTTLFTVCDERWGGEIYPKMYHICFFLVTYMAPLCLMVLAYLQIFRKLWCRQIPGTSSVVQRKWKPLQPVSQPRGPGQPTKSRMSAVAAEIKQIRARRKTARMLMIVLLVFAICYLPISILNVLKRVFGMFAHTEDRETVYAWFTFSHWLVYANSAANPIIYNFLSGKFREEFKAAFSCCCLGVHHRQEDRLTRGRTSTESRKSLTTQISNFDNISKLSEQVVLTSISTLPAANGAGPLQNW
Description: (§1) The orexin receptor antagonistic activity of the compounds of formula (I) is determined in accordance with the following experimental method.
(§2) Intracellular Calcium Measurements:
(§3) Chinese hamster ovary (CHO) cells expressing the human orexin-1 receptor and the human orexin-2 receptor, respectively, are grown in culture medium (Ham F-12 with L-Glutamine) containing 300 μg/ml G418, 100 U/ml penicillin, 100 μg/ml streptomycin and 10% inactivated fetal calf serum (FCS). The cells are seeded at 80′000 cells/well into 96-well black clear bottom sterile plates (Costar) which have been precoated with 1% gelatine in Hanks' Balanced Salt Solution (HBSS). All reagents are from Gibco BRL. The seeded plates are incubated overnight at 37° C. in 5% CO2.
(§4) Human orexin-A as an agonist is prepared as 1 mM stock solution in MeOH:water (1:1), diluted in HBSS containing 0.1% bovine serum albumin (BSA) and 2 mM HEPES for use in the assay at a final concentration of 10 nM.
(§5) Antagonists are prepared as 10 mM stock solution in DMSO, then diluted in 96-well plates, first in DMSO, then in HBSS containing 0.1% bovine serum albumin (BSA) and 2 mM HEPES.
(§6) On the day of the assay, 100 μl of loading medium (HBSS containing 1% FCS, 2 mM HEPES, 5 mM probenecid (Sigma) and 3 μM of the fluorescent calcium indicator fluo-3 AM (1 mM stock solution in DMSO with 10% pluronic acid) (Molecular Probes) is added to each well.
(§7) The 96-well plates are incubated for 60 min at 37° C. in 5% CO2. The loading solution is then aspirated and cells are washed 3 times with 200 μl HBSS containing 2.5 mM probenecid, 0.1% BSA, 2 mM HEPES. 100 μl of that same buffer is left in each well.
(§8) Within the Fluorescent Imaging Plate Reader (FLIPR, Molecular Devices), antagonists are added to the plate in a volume of 50 μl, incubated for 20 min and finally 100 μl of agonist is added. Fluorescence is measured for each well at 1 second intervals, and the height of each fluorescence peak is compared to the height of the fluorescence peak induced by 10 nM orexin-A with buffer in place of antagonist. For each antagonist, IC50 value (the concentration of compound needed to inhibit 50% of the agonistic response) is determined.

human orexin-1 receptor = target: T2, human orexin-1 receptor (Homo sapiens, UniProt O43613); test: Intracellular calcium measurements (FLIPR), orexin receptor antagonistic activity, OX1; format: cell-based; settings: CHO cells expressing the human orexin-1 receptor, 10 nM orexin-A as agonist
T2 construct: expressed in transfected cells; host or cells: CHO (Chinese hamster ovary) cells, G418 selection
T2 sequence (O43613 1-425): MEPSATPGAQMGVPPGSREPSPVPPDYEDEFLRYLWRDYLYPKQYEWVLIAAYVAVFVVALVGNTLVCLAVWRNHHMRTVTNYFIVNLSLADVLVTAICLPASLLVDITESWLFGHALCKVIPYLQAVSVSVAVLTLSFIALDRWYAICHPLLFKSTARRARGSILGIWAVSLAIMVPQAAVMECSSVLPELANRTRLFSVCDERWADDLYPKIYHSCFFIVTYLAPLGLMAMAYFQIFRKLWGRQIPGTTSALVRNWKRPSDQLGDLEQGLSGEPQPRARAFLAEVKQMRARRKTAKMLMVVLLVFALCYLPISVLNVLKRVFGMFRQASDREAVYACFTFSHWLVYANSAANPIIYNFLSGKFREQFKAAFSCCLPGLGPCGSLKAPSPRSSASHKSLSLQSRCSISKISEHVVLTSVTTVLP
Description: as §1, §2, §3, §4, §5, §6, §7, §8

| SMILES | IC50 (human orexin-2 receptor) | IC50 (human orexin-1 receptor) |
| --- | --- | --- |
| O=C(NC[C@@H]1C[C@@H]2C[C@@H]2N1C(=O)c1ncsc1-c1cccc(Cl)c1)c1cccc2cccnc12 [Example 235, Quinoline-8-carboxylic acid {(1S,3S,5S)-2-[5-(3-chloro-phenyl)-thiazole-4-carbonyl]-2-aza-bicyclo[3.1.0]hex-3-ylmethyl}-amide] | 0.452 µM | 0.088 µM |
| Cc1nc(C(=O)N2[C@H](CNC(=O)c3cccc4c3CCO4)C[C@@H]3C[C@@H]32)c(-c2cccc(F)c2C)s1 [Example 199, 2,3-Dihydro-benzofuran-4-carboxylic acid {(1S,3S,5S)-2-[5-(3-fluoro-2-methyl-phenyl)-2-methyl-thiazole-4-carbonyl]-2-aza-bicyclo[3.1.0]hex-3-ylmethyl}-amide] | 0.041 µM | 0.139 µM |
| Nc1nc(C(=O)N2[C@H](CNC(=O)c3cccc4c3OCCO4)C[C@@H]3C[C@@H]32)c(-c2cccc(F)c2)s1 [Example 25, 2,3-dihydro-benzo[1,4]dioxine-5-carboxylic acid {(1S,3S,5S)-2-[2-amino-5-(3-fluoro-phenyl)-thiazole-4-carbonyl]-2-aza-bicyclo[3.1.0]hex-3-ylmethyl}-amide] | 0.014 µM | 0.08 µM |
| Cc1nc2sccn2c1C(=O)NC[C@@H]1C[C@@H]2C[C@@H]2N1C(=O)c1ccccc1-c1cccc(Cl)c1 [Example 17, 6-methyl-imidazo[2,1-b]thiazole-5-carboxylic acid [(1S,3S,5S)-2-(3′-chloro-biphenyl-2-carbonyl)-2-aza-bicyclo[3.1.0]hex-3-ylmethyl]-amide] | 0.06 µM | 0.015 µM |
| O=C(NC[C@@H]1C[C@@H]2C[C@@H]2N1C(=O)c1nc(C2CC2)sc1-c1ccccc1F)c1cccc2c1CCO2 [Example 208, 2,3-Dihydro-benzofuran-4-carboxylic acid {(1S,3S,5S)-2-[2-cyclopropyl-5-(2-fluoro-phenyl)-thiazole-4-carbonyl]-2-aza-bicyclo[3.1.0]hex-3-ylmethyl}-amide] | 0.034 µM | 0.058 µM |
| O=C(NC[C@@H]1C[C@@H]2C[C@@H]2N1C(=O)c1ccccc1-c1cccc(Cl)c1)c1cccc2occc12 [Example 8, benzofuran-4-carboxylic acid [(1S,3S,5S)-2-(3′-chloro-biphenyl-2-carbonyl)-2-aza-bicyclo[3.1.0]hex-3-ylmethyl]-amide] | 0.078 µM | 0.045 µM |
| Nc1nc(C(=O)N2[C@H](CNC(=O)c3cnc4sccn34)C[C@@H]3C[C@@H]32)c(-c2cccc(F)c2)s1 [Example 57, imidazo[2,1-b]thiazole-5-carboxylic acid {(1S,3S,5S)-2-[2-amino-5-(3-fluoro-phenyl)-thiazole-4-carbonyl]-2-aza-bicyclo[3.1.0]hex-3-ylmethyl}-amide] | 0.011 µM | 0.012 µM |
| Cc1nc(C(=O)N2[C@H](CNC(=O)c3cccc4c3CCO4)C[C@@H]3C[C@@H]32)c(-c2ccc(Br)cc2)s1 [Example 192, 2,3-Dihydro-benzofuran-4-carboxylic acid {(1S,3S,5S)-2-[5-(4-bromo-phenyl)-2-methyl-thiazole-4-carbonyl]-2-aza-bicyclo[3.1.0]hex-3-ylmethyl}-amide] | 0.035 µM | 0.11 µM |
| Cc1nc2sccn2c1C(=O)NC[C@@H]1C[C@@H]2C[C@@H]2N1C(=O)c1nc(N(C)C)sc1-c1ccccc1 [Example 246, 6-Methyl-imidazo[2,1-b]thiazole-5-carboxylic acid [(1S,3S,5S)-2-(2-dimethylamino-5-phenyl-thiazole-4-carbonyl)-2-aza-bicyclo[3.1.0]hex-3-ylmethyl]-amide] | 0.044 µM | 0.02 µM |
| O=C(NC[C@@H]1C[C@@H]2C[C@@H]2N1C(=O)c1ncsc1-c1cccc(Cl)c1)c1cccc2c1CCO2 [Example 212, 2,3-Dihydro-benzofuran-4-carboxylic acid {(1S,3S,5S)-2-[5-(3-chloro-phenyl)-thiazole-4-carbonyl]-2-aza-bicyclo[3.1.0]hex-3-ylmethyl}-amide] | 0.102 µM | 0.109 µM |

More lines, now with the values ahead:

| IC50 (human orexin-2 receptor) | IC50 (human orexin-1 receptor) | SMILES |
| --- | --- | --- |
| 0.057 µM | 0.045 µM | Cc1cccc(-c2sc(N)nc2C(=O)N2[C@H](CNC(=O)c3cccc4cccnc34)C[C@@H]3C[C@@H]32)c1 [Example 176, Quinoline-8-carboxylic acid [(1S,3S,5S)-2-(2-amino-5-m-tolyl-thiazole-4-carbonyl)-2-aza-bicyclo[3.1.0]hex-3-ylmethyl]-amide] |
| 0.024 µM | 0.007 µM | Cc1cccc(-c2sc(C)nc2C(=O)N2[C@H](CNC(=O)c3c(C)nc4sccn34)C[C@@H]3C[C@@H]32)c1 [Example 11, 6-methyl-imidazo[2,1-b]thiazole-5-carboxylic acid [(1S,3S,5S)-2-(2-methyl-5-m-tolyl-thiazole-4-carbonyl)-2-aza-bicyclo[3.1.0]hex-3-ylmethyl]-amide] |
| 0.015 µM | 0.042 µM | CCn1cc(C(=O)NC[C@@H]2C[C@@H]3C[C@@H]3N2C(=O)c2nc(C)sc2-c2cccc(C)c2)c(C)n1 [Example 99, 1-Ethyl-3-methyl-1H-pyrazole-4-carboxylic acid [(1S,3S,5S)-2-(2-methyl-5-m-tolyl-thiazole-4-carbonyl)-2-aza-bicyclo[3.1.0]hex-3-ylmethyl]-amide] |
| 0.074 µM | 1.98 µM | COc1ccc(C(=O)NC[C@@H]2C[C@@H]3C[C@@H]3N2C(=O)c2nc(C)sc2-c2cccc(C)c2)cc1OC [Example 123, 3,4-Dimethoxy-N-[(1S,3S,5S)-2-(2-methyl-5-m-tolyl-thiazole-4-carbonyl)-2-aza-bicyclo[3.1.0]hex-3-ylmethyl]-benzamide] |
| 0.129 µM | 0.076 µM | Cc1cccc(-c2sc(C)nc2C(=O)N2[C@H](CNC(=O)c3cccc4c3OCCN4C)C[C@@H]3C[C@@H]32)c1 [Example 130, 4-Methyl-3,4-dihydro-2H-benzo[1,4]oxazine-8-carboxylic acid [(1S,3S,5S)-2-(2-methyl-5-m-tolyl-thiazole-4-carbonyl)-2-aza-bicyclo[3.1.0]hex-3-ylmethyl]-amide] |
| 0.154 µM | 0.042 µM | CCc1cnc(NC[C@@H]2C[C@@H]3C[C@@H]3N2C(=O)c2nc(C)sc2-c2cccc(C)c2)nc1 [Example 277, {(1S,3S,5S)-3-[(5-Ethyl-pyrimidin-2-ylamino)-methyl]-2-aza-bicyclo[3.1.0]hex-2-yl}-(2-methyl-5-m-tolyl-thiazol-4-yl)-methanone] |
| 0.074 µM | 0.051 µM | Cc1nc(C(=O)N2[C@H](CNC(=O)c3noc4ccccc34)C[C@@H]3C[C@@H]32)c(-c2cccc(Cl)c2)s1 [Example 147, Benzo[d]isoxazole-3-carboxylic acid {(1S,3S,5S)-2-[5-(3-chloro-phenyl)-2-methyl-thiazole-4-carbonyl]-2-aza-bicyclo[3.1.0]hex-3-ylmethyl}-amide] |
| 0.04 µM | 0.014 µM | Cc1cccc(-c2sc(C)nc2C(=O)N2[C@H](CNC(=O)c3ccc4ccccc4n3)C[C@@H]3C[C@@H]32)c1 [Example 93, Quinoline-2-carboxylic acid [(1S,3S,5S)-2-(2-methyl-5-m-tolyl-thiazole-4-carbonyl)-2-aza-bicyclo[3.1.0]hex-3-ylmethyl]-amide] |
